The values that follow come from patent US8946216B2, “Indazole derivatives useful as ERK inhibitors” (Merck Sharp & Dohme Corp., priority 2010, dated 2015).

SMILES strings stand for the structures.

One assay deals with ERK protein (Homo sapiens, UniProt P28482). In words: TdF (Temperature Dependence Fluorescence, thermal shift) assay for ERK. The class given is binding. Particulars: read-out: TdF Kd; 3 μM ERK protein, 15, 50 or 100 μM compound, Sypro Orange; Kd calculated from ΔTm; uncertainty estimated ±50%. The text has this: Assays: TdF Assay for ERK
The SAR (Structure Activity Relationship) for ERK ligands covered by this invention was interrogated using the TdF (Temperature Dependence Fluorescence) assay or best known as thermal shift assay. The TdF assay was mainly conducted in the 96-well based CHROMO-4 real time fluorescence plate reader (BioRad). The Sypro Orange (Sigma-Aldrich), environmentally sensitive fluorescence dye, was used to monitor the protein folding-unfolding transition. Protein-ligand binding was gauged by the change (or shift) in the unfolding transition temperature (ΔTm) acquired at protein alone with respect to protein in the presence of ligand of interest.
Compound of interest was first prepared in DMSO stock (typical concentration: 10 mM). Sample of 20 μL was then added into the 96-well PCR plate, where it consisted of 3 μM. […] Final percentage of DMSO resided in the sample was 2%. The sample plate was heated from 30° C. to 90° C. with thermal ramping rate of 1 ° C./min. The fluorescence signals were acquired with excitation and emission wavelengths centered at 490 and 560 nm respectively. The instrument thermal stability was ±0.2° C. The melting temperatures (Tm) for ERK protein under aforementioned conditions occurred at 61.0±0.2° C. and 64.8±0.2° C. respectively.
Theoretical Basis for TdF-based Ligand Binding Affinity Constant
The derivation of TdF-based ligand binding affinity constant (Kd) followed closely those previously formulated by Brandts and Lin [2]. In brief, the binding constant of the ligand at the Tm is expressed as below: […]
where T0 is the midpoint of unfolding for unliganded protein and Tm is the midpoint of unfolding in presence of ligand. [LTm] is free ligand at Tm. The ΔHu and ΔCpu are the enthalpy of unfolding and heat capacity change of unfolding for the protein respectively. Following algorithm derived by Winsor and coworker, the T0, ΔHu and ΔCpu can be determined separately from nonlinear regression fitting the protein alone melting curve:
Where F(T) is the observed fluorescence intensity at any temperature T, Yn and Yu are the predicted fluorescence intensities for fully folded and unfolded protein, respectively; mn and mu are slope correction for changes in Yn and Yu with respect to changes in temperature (analogously replace T0 with Tm in the above equation for liganded protein to yield Tm).
where ΔHL(T) is the van't Hoff enthalpy of ligand binding at temperature T and ΔCpL is the heat capacity upon ligand binding. For simplicity, the ΔCpL and ΔHL(T) were set to zero and −7 kcal/mol respectively. The uncertainty in the calculated ligand binding affinity constant was estimated to be ±50%.

Assay [1] concerns the target unphosphorylated Mouse ERK2 protein (inactive ERK2) (Mus musculus, UniProt P63085). In words: Coupled ERK2 (cERK) assay, coupled MEK1/ERK2 IMAP. The note with it: 30 min preincubation with inactive ERK2, then activation by human MEK1; 30 μM ATP; fluorescence polarization; read-out: cERK2 IC50. The class given is biochemical. The text has this: • 1. M. W. Pantoliana, E. C. Petrella, J. D. Kwasnoski, V. S. Lobanov, J. Myslik, E. Graf, T. Carver, E. Asel, B. A. Springer, P. Lane, F. R. Salemme, High-density miniaturized thermal shift assays as a general strategy for drug discovery, J. Biomol. Screen 6 (2001) 429-440 • 2. J. F. Brandts, L.-N. Lin, Study of strong to ultratight protein interactions using differential scanning calorimetry, Biochemistry 29 (1990) 6927-6940 • 3. Mayhood, T. W., Windsor, W. T., Ligand binding affinity determined by temperature-dependent circular dichroism: Cyclin-dependent kinase 2 inhibitors, Analytical Biochemistry 345 (2005) 187-197 Coupled ERK2 (cERK) Assay:
14 μl of kinase buffer (10 mM Tris.HCl pH 7.2, 10 mM MgCl2, 0.01% Tween-20, 1 mM DTT) containing 0.4 ng unphosphorylated Mouse ERK2 protein was added to each well of a black 384-well assay plate. […] DMSO concentration during initial incubation is 6.7%. ERK2 activity was determined to be insensitive to DMSO concentrations up to 20%. ERK2 was then activated and it's kinase activity measured by the addition of 10 μl kinase buffer with the following components (final concentration per reaction): 2 ng active (phosphorylated) human MEK1 protein and 4 μM (total) ERK2 IMAP substrate peptides (3.9 μM unlabeled IPTTPITTTYFFFK-CONH2 and 100 nM IPTTPITTTYFFFK(5-carboxyfluorescein)-CONH2) and 30 μM ATP. DMSO concentration during ERK activation was 4%. After one hour, reactions were terminated by addition of 60 μl IMAP detections beads in binding buffer (Molecular Devices). Binding was allowed to equilibrate for 30 minutes before reading the plate on an LJL Analyst Fluorescence Polarization plate reader. […] Active compounds were reconfirmed in an independent assay.
A general note: Fluorescence polarisation rises when a labelled molecule tumbles more slowly, as on binding a larger partner.

unphosphorylated Mouse ERK2 protein (inactive ERK2), sequence (P63085 whole entry): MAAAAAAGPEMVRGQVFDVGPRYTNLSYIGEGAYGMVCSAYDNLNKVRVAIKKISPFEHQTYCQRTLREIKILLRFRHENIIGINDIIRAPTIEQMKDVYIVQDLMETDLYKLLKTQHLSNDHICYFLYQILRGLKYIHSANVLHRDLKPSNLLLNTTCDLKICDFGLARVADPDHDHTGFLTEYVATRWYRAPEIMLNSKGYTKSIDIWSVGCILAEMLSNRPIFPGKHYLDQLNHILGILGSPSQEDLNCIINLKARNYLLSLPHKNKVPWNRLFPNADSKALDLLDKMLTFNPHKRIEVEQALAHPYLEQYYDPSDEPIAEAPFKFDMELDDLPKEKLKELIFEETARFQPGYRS
ERK protein, sequence (P28482 2-360): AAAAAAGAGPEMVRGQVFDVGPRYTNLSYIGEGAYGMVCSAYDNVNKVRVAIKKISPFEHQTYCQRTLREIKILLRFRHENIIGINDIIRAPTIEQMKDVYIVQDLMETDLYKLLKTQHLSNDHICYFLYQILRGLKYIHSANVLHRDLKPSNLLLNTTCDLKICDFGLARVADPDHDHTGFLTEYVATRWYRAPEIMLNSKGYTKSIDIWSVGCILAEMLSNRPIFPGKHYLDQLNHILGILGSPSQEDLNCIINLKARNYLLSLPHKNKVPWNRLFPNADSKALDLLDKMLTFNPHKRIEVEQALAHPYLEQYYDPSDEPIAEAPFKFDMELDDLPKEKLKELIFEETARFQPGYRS

One may read the Kd as the concentration at which binding is half-saturated. The IC50 is the midpoint of a concentration-inhibition curve. Consider `O=C(Nc1ccc2[nH]nc(-c3ccncc3)c2c1)C1CN(Cc2ccccc2Br)CCS1` (stereo not shown) [Compound 6, 4-[(2-BROMOPHENYL)METHYL]-N-[3-(4-PYRIDINYL)-1H-INDAZOL-5-YL]-2-THIOMORPHOLINECARBOXAMIDE], for which, on ERK protein, the Kd was 38 nM. Also, the IC50 in assay [1] came to 114 nM.
For the compound `O=C(Nc1ccc2[nH]nc(-c3ccncc3)c2c1)C1CN(Cc2ccccc2)CCC1O` (stereo not shown) [Compound 71, 4-HYDROXY-1-(PHENYLMETHYL)-N-[3-(4-PYRIDINYL)-1H-INDAZOL-5-YL]-3-PIPERIDINECARBOXAMIDE], on ERK protein, the Kd was 84.1 nM.
As to `O=C(Nc1ccc2[nH]nc(-c3ccncc3)c2c1)C1CN(Cc2ccc(Cl)cc2)CCO1` (stereo not shown) [Compound 27, 4-[(4-CHLOROPHENYL)METHYL]-N-[3-(4-PYRIDINYL)-1H-INDAZOL-5-YL]-2-MORPHOLINECARBOXAMIDE], the Kd on ERK protein was 3530 nM. Besides, the IC50 in assay [1] came out at 538 nM.
For the compound `O=C(Nc1ccc2[nH]nc(-c3ccncc3)c2c1)C1CN(Cc2cscn2)CCS1` (stereo not shown) [Compound 13, N-[3-(4-PYRIDINYL)-1H-INDAZOL-5-YL]-4-(4-THIAZOLYLMETHYL)-2-THIOMORPHOLINECARBOXAMIDE], the Kd on ERK protein is 201 nM. The IC50 in assay [1] came out at 929 nM.
On to `O=C(Nc1ccc2[nH]nc(-c3ccncc3)c2c1)C1CCCN(Cc2ccccc2Cl)C1` (stereo not shown) [Compound 23, 1-[(2-CHLOROPHENYL)METHYL]-N-[3-(4-PYRIDINYL)-1H-INDAZOL-5-YL]-3-PIPERIDINECARBOXAMIDE], for which the Kd at ERK protein is 3 nM. Also, the IC50 in assay [1] amounted to 158 nM.
For the compound `O=C(Nc1ccc2[nH]nc(-c3ccncc3)c2c1)C1CN(Cc2ccc(F)c(Cl)c2)CCO1` (stereo not shown) [Compound 49, 4-[(3-CHLORO-4-FLUOROPHENYL)METHYL]-N-[3-(4-PYRIDINYL)-1H-INDAZOL-5-YL]-2-MORPHOLINECARBOXAMIDE], on ERK protein, the Kd is 910 nM. For the same compound, the IC50 in assay [1] is 1780 nM.
`O=C(Nc1ccc2[nH]nc(-c3ccncc3)c2c1)C1CN(Cc2ccccc2Br)CCO1` (stereo not shown) [Compound 7, 4-[(2-BROMOPHENYL)METHYL]-N-[3-(4-PYRIDINYL)-1H-INDAZOL-5-YL]-2-MORPHOLINECARBOXAMIDE]: the Kd on ERK protein was 17 nM. For the same compound, the IC50 in assay [1] came out at 96.9 nM.
The corresponding values for `CN1CCCC(C(=O)Nc2ccc3[nH]nc(-c4ccncc4)c3c2)C1` (stereo not shown) [Compound 26, 1-METHYL-N-[3-(4-PYRIDINYL)-1H-INDAZOL-5-YL]-3-PIPERIDINECARBOXAMIDE] are 1100 nM and 4870 nM.
The corresponding values for `O=C(Nc1ccc2[nH]nc(-c3ccncc3)c2c1)C1CCCN(Cc2ccccc2)C1` (stereo not shown) [Compound 24, 1-(PHENYLMETHYL)-N-[3-(4-PYRIDINYL)-1H-INDAZOL-5-YL]-3-PIPERIDINECARBOXAMIDE] are 20 nM and 239 nM.
On the same counts, the results for `O=C(Nc1ccc2[nH]nc(-c3ccncc3)c2c1)C1CCCN(Cc2ccccc2Br)C1` (stereo not shown) [Compound 21, 1-[(2-BROMOPHENYL)METHYL]-N-[3-(4-PYRIDINYL)-1H-INDAZOL-5-YL]-3-PIPERIDINECARBOXAMIDE] are 4 nM and 130 nM.
Consider `O=C(Nc1ccc2[nH]nc(-c3ccncc3)c2c1)C1CN(Cc2ccccc2Cl)CCO1` (stereo not shown) [Compound 15, 4-[(2-CHLOROPHENYL)METHYL]-N-[3-(4-PYRIDINYL)-1H-INDAZOL-5-YL]-2-MORPHOLINECARBOXAMIDE], for which the Kd at ERK protein is 17 nM. Moreover, in assay [1], the half-inhibitory concentration (IC50) came out at 77.8 nM.
As for `CCCCNC(=O)c1n[nH]c2ccc(NC(=O)C3CN(Cc4ccccc4F)CCS3)cc12` (stereo not shown) [Compound 76, N-BUTYL-5-[[[4-[(2-FLUOROPHENYL)METHYL]-2-THIOMORPHOLINYL]CARBONYL]AMINO]-1H-INDAZOLE-3-CARBOXAMIDE], the Kd at ERK protein was 920 nM. Further, the IC50 in assay [1] stood at 873 nM.
The corresponding values for `CNC(=O)c1n[nH]c2ccc(NC(=O)C3CN(Cc4ccccc4F)CCS3)cc12` (stereo not shown) [Compound 75, 5-[[[4-[(2-FLUOROPHENYL)METHYL]-2-THIOMORPHOLINYL]CARBONYL]AMINO]-N-METHYL-1H-INDAZOLE-3-CARBOXAMIDE] are 250 nM and 350 nM.
Consider `O=C(Nc1ccc2[nH]nc(-c3ccncc3)c2c1)C1CCCN(Cc2ccccc2F)C1` (stereo not shown) [Compound 22, 1-[(2-FLUOROPHENYL)METHYL]-N-[3-(4-PYRIDINYL)-1H-INDAZOL-5-YL]-3-PIPERIDINECARBOXAMIDE], for which, at ERK protein, the Kd is 9 nM. The IC50 in assay [1] amounted to 27.3 nM.
The corresponding values for `O=C(Nc1ccc2[nH]nc(-c3ccncc3)c2c1)C1CN(Cc2cc(C(F)(F)F)ccc2F)CCO1` (stereo not shown) [Compound 42, 4-[[2-FLUORO-5-(TRIFLUOROMETHYL)PHENYL]METHYL]-N-[3-(4-PYRIDINYL)-1H-INDAZOL-5-YL]-2-MORPHOLINECARBOXAMIDE] are 1260 nM and 2660 nM.
As to `O=C(Nc1ccc2[nH]nc(-c3ccncc3)c2c1)C1CN(Cc2ccccn2)CCS1` (stereo not shown) [Compound 12, N-[3-(4-PYRIDINYL)-1H-INDAZOL-5-YL]-4-(2-PYRIDINYLMETHYL)-2-THIOMORPHOLINECARBOXAMIDE], at ERK protein, the Kd was 674 nM. The IC50 in assay [1] is 1310 nM.
As to `COc1cc(F)c(CN2CCOC(C(=O)Nc3ccc4[nH]nc(-c5ccncc5)c4c3)C2)cc1OC` (stereo not shown) [Compound 40, 4-[(2-FLUORO-4,5-DIMETHOXYPHENYL)METHYL]-N-[3-(4-PYRIDINYL)-1H-INDAZOL-5-YL]-2-MORPHOLINECARBOXAMIDE], the Kd on ERK protein was 1190 nM. Further, in assay [1], the IC50 was found to be 1110 nM.
On the same counts, the results for `O=C(Nc1ccc2[nH]nc(-c3ccncc3)c2c1)C1CN(Cc2ccc(Cl)cc2F)CCO1` (stereo not shown) [Compound 41, 4-[(4-CHLORO-2-FLUOROPHENYL)METHYL]-N-[3-(4-PYRIDINYL)-1H-INDAZOL-5-YL]-2-MORPHOLINECARBOXAMIDE] are 584 nM and 419 nM.
For `O=C(Nc1ccc2[nH]nc(-c3ccncc3)c2c1)C1CCCNC1` (stereo not shown) [Compound 25, N-[3-(4-PYRIDINYL)-1H-INDAZOL-5-YL]-3-PIPERIDINECARBOXAMIDE], the Kd on ERK protein is 4500 nM. The IC50 in assay [1] worked out at 631 nM.
As to `COc1cccc(CN2CCOC(C(=O)Nc3ccc4[nH]nc(-c5ccncc5)c4c3)C2)c1` (stereo not shown) [Compound 28, 4-[(3-METHOXYPHENYL)METHYL]-N-[3-(4-PYRIDINYL)-1H-INDAZOL-5-YL]-2-MORPHOLINECARBOXAMIDE], at ERK protein, the Kd was 3620 nM. The IC50 in assay [1] came out at 290 nM.
As for `N#Cc1ccccc1CN1CCOC(C(=O)Nc2ccc3[nH]nc(-c4ccncc4)c3c2)C1` (stereo not shown) [Compound 32, 4-[(2-CYANOPHENYL)METHYL]-N-[3-(4-PYRIDINYL)-1H-INDAZOL-5-YL]-2-MORPHOLINECARBOXAMIDE], the Kd on ERK protein was 775 nM. For the same compound, the IC50 in assay [1] turned out to be 383 nM.
For the compound `N#Cc1cccc(CN2CCOC(C(=O)Nc3ccc4[nH]nc(-c5ccncc5)c4c3)C2)c1` (stereo not shown) [Compound 31, 4-[(3-CYANOPHENYL)METHYL]-N-[3-(4-PYRIDINYL)-1H-INDAZOL-5-YL]-2-MORPHOLINECARBOXAMIDE], on ERK protein, the Kd was 2720 nM. Also, the IC50 in assay [1] was 1180 nM.
